The values below come from paper PMC2783875 (Biochemistry, 2009).

In the assay the target is T1, EntE (Escherichia coli, UniProt P10378).
T1 sequence (P10378 1-536): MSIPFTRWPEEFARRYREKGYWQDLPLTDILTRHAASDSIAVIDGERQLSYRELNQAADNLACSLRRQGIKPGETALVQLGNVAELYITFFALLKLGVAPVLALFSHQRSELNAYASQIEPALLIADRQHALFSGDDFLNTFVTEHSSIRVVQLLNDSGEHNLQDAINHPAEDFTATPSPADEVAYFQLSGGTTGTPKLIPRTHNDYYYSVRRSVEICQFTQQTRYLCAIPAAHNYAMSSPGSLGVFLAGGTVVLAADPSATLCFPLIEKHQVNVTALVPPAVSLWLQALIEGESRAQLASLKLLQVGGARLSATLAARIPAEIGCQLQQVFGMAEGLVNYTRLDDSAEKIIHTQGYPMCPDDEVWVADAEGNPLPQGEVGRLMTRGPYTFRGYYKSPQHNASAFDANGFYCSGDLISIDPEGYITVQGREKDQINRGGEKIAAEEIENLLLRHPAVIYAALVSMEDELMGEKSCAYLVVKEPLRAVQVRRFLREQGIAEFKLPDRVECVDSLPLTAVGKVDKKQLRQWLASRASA
Kind of assay: enzyme inhibition kinetics versus ATP. The class given is biochemical.

Broadly, the Ki is a measure of affinity in units of concentration, obtained from inhibition or displacement. Low values mean tighter binding, high ones weaker binding. Turning to `Nc1ncnc2c1ncn2[C@@H]1O[C@H](COP(=O)(O)OP(=O)(O)OP(=O)(O)OP(=O)(O)OC[C@H]2O[C@@H](n3cnc4c(N)ncnc43)[C@H](O)[C@@H]2O)[C@@H](O)[C@H]1O` [Ap4A, P^1, P^3-diadenosine-5′-tetraphosphate], the Ki amounted to 1200 ± 100 nM.
